{
  "source": "patent US20250057791A1",
  "about": "“PROTECTION AGAINST ARTHROPOD PARASITES WITH PURINERGIC RECEPTOR (OPR) ANTAGONISTS” (priority 2021, published 2025)",
  "key": {"Glossina pallidipes": {"test_system": "Glossina pallidipes", "test": "Membrane feeding assay, tsetse fly Glossina pallidipes", "type": "in vivo", "conditions": "for effect on feeding, compound in solution containing ATP, in words: doses as in Table 10", "experimental": "(§1) Flies of both species were transferred 30 min before feeding experiments to feeding cages as used for mosquitoes at 24° C., 80% RH in an environmental cabinet. Teneral tsetse were fed at 2 to 4 days old during the photophase with between 7 and 13 flies per feeding cage, covered with a black cloth. Horn flies were tested at 1 and 2 days old in the photophase with between 6 and 21 flies per cage. Both fly species were fed using small Hemotek feeding reservoirs (29 mm diameter, 1 ml) equipped with a membrane as for mosquitoes. Horn flies were fed for 15 min with feeding reservoirs placed on the cage. For tsetse, cages were closed with black mosquito netting at the bottom to allow flies to feed through the membrane placed under the cage. Feeding time (1.5 to 6 min) for tsetse was adjusted as a function of age to achieve at least 30% feeding on the positive control included in each feeding experiment. The positive control for both fly species contained 150 mM NaCl, 8.9 mM NaHCO3 with 100 μM ATP added, hereafter termed fly feeding solution (FFS). The pH of the FFS was adjusted as for ticks. The effect of TMP on feeding by G. pallidipes was also tested at 16 μg TMP/cm^2 dissolved in 140 μl hexane and applied homogeneously to the membrane surface using a micropipette. Hexane was used to treat the membrane with TMP to avoid the test compound being dispersed by fly wing-fanning. Flies of both species were activated just prior to feeding on a treatment by exhalation into the cage. Tsetse that had fed were identified with swollen abdomens and counted at the end of a feeding experiment. Since it was difficult to ascertain by eye whether a horn fly had fed on a treatment, 10 μl/ml of blue food colorant (No. 4866908, Trawosa AG, St. Gallen, Switzerland) was added. This facilitated the detection of ingested liquid when the abdomen of flies, killed by freezing, was squashed onto filter paper. Only experiments in which the feeding rate by flies was >30% on the positive control were included in analyses.\n(§2) Uptake of TFS containing PR antagonists, converted to mg/h for hard ticks and weight gains in mg/25 min for soft ticks, was compared to TFS uptake in the corresponding positive controls. […] For tsetse and horn flies the percentage flies that fed per antagonist treatment served as the criterion for inhibition of feeding. As horn fly sexes emerged within 24 h, both sexes were assumed to show the same degree of appetence. In tsetse, males emerged first so a gender-related appetence could not be excluded. No sex-related feeding differences in feeding were found for testse (GLM, P>0.05) so data for the sexes were pooled. Comparisons of percentage fed flies were made using a Bayesian GLM—the most appropriate model considering the zero-inflated distributions shown by the data sets. […] P-values were corrected using Holm's FWEC in multiple comparisons of data for each tick and fly species."}, "Ixodes ricinus": {"test_system": "Ixodes ricinus", "test": "Glass capillary feeding of partly fed female ticks, Ixodes ricinus", "type": "in vivo", "conditions": "for Fluid intake, Median (mg): females, glass capillary", "text": "(§3) I. ricinus adults were prefed for 3-4 days and A. hebraeum adults for 10 days on a membrane over bovine blood (Kröber T. and Guerin P. M., 2007, supra). Partly fed I. ricinus and A. hebraeum, freshly detached from the membrane, were tightly fixed by the scutum and alloscutum to double-sided adhesive tape (Tesafix® 4964, Beiersdorf, Hamburg, Germany) on a glass slide and secured with plasticine. Test compounds were fed to these partly-fed female ticks using borosilicate capillary tubes (Clark GC120-10, 0.69 mm i.d., 1.2 mm o.d., 50 mm long; Clark Electromedical Instruments, Pangbourne, Reading, UK) with drawn out tips adapted to fit around the mouthparts of individual ticks. Feeding capillaries were filled with a solution of 100 mM NaCl, 8.9 mM NaHCO3 with 1000 μM ATP added, hereafter termed tick feeding solution (TFS) that served as positive control in each feeding experiment. PR antagonists were added to the TFS and pH of the solution was adjusted to 7.2-7.8. Capillary-fed ticks were kept in a plastic box on a warm plate at 34° C. and 80% RH using wet paper. After 1 h, the amount of solution imbibed by a tick was indicated by the drop of the meniscus in the capillary and measured using Vernier callipers and converted to mg.\nUptake of TFS containing PR antagonists, converted to mg/h for hard ticks and weight gains in mg/25 min for soft ticks, was compared to TFS uptake in the corresponding positive controls. […] For tsetse and horn flies the percentage flies that fed per antagonist treatment served as the criterion for inhibition of feeding. As horn fly sexes emerged within 24 h, both sexes were assumed to show the same degree of appetence. In tsetse, males emerged first so a gender-related appetence could not be excluded. No sex-related feeding differences in feeding were found for testse (GLM, P>0.05) so data for the sexes were pooled. Comparisons of percentage fed flies were made using a Bayesian GLM—the most appropriate model considering the zero-inflated distributions shown by the data sets. […]"}, "Haematobia irritans": {"test_system": "Haematobia irritans", "test": "Membrane feeding assay, horn fly Haematobia irritans", "type": "in vivo", "conditions": "for effect on feeding on solutions containing ATP, in words: doses as in Table 10", "experimental": "as §1, §2"}, "Amblyomma hebraeum": {"test_system": "Amblyomma hebraeum", "test": "Glass capillary feeding of partly fed female ticks, Amblyomma hebraeum", "type": "in vivo", "conditions": "females", "text": "as §3, with “mg. […]” for “mg.”"}, "[1]": {"molecular_target": "Vertebrate P2X3 and P2X2/3 PRs", "conditions": "cited from earlier work"}, "[2]": {"test_system": "A. gambiae labellum ATP-sensitive receptor", "test": "Effects of metal ions on electrophysiological responses to ATP", "type": "cell-based, Anopheles gambiae", "experimental": "The tip recording method was used to record action potentials (spikes) from sensory cells in sensilla on A. gambiae labellum lobes.\nSensilla were exposed to test compounds and PR antagonists for ca. 2-4 s and spikes were counted in the first 2 s of recordings. Up to 4 test compounds were tested on a sensillum to evaluate potential agonists, each presented at 200 pM. To study responses as a function of dose for agonists ATP, adenosine, AMP, AMP-CPP and ATP+adenosine, up to 7 recordings were made at increasing doses of agonist from the same sensillum. […]\nPairwise comparisons of A. gambiae electrophysiological (EP) responses to ATP and adenosine alone and combined with a given dose of PR antagonist, EP responses to ATP alone and combined with a given dose of a metal modulator, and EP responses to ATP prior to and after exposure of a sensillum to a given dose of a PR antagonist were made with a one-tailed Wilcoxon signed-rank test for data showing a non-normal distribution, with a paired Student's t-test for normally distributed data showing homogeneous variance and with a Welch's t-test for normally distributed data showing non-homogeneous variance. […] Percent feeding inhibition induced by PR antagonists in A. stephensi was calculated using Abbott's formula."}},
  "note": "pKd: −log10 of the molar value. Several values for one entry are separate records, joined by “and”; a condition that tells them apart may be missing. Equal entries are not always repeated.",
  "data": [
    {"smiles": "O=C(O)c1cc(C(=O)O)c(C(=O)N(Cc2cccc(Oc3ccccc3)c2)[C@H]2CCCc3ccccc32)cc1C(=O)O", "note": "[A-317491, 5-[(3-phenoxyphenyl)methyl-[(1S)-1,2,3,4-tetrahydronaphthalen-1-yl]carbamoyl]benzene-1,2,4-tricarboxylic acid]", "values": [
      {"measurement": "% Fed, Median", "setting": "Glossina pallidipes; FFS + 1 μM", "value": 22.5, "unit": "%"},
      {"measurement": "effect on feeding, compound in solution containing ATP, in words", "setting": "Glossina pallidipes", "value": "inhibited feeding"},
      {"measurement": "Fluid intake, Median (mg)", "setting": "Ixodes ricinus; TFS + 1 μM", "value": 1.5, "unit": "mg/h"},
      {"measurement": "effect on feeding on solution containing ATP, in words", "setting": "Ixodes ricinus; doses as in Table 9", "value": "inhibited feeding"},
      {"measurement": "% Fed, Median", "setting": "Haematobia irritans; FFS + 10 μM", "value": 58.3, "unit": "%"},
      {"measurement": "% Fed, Median", "setting": "Haematobia irritans; FFS + 100 μM", "value": 41.5, "unit": "%"},
      {"measurement": "effect on feeding on solutions containing ATP, in words", "setting": "Haematobia irritans", "value": "inhibited feeding"},
      {"measurement": "Fluid intake, Median (mg)", "setting": "Amblyomma hebraeum; TFS + 1 μM", "value": 6.7, "unit": "mg/h"},
      {"measurement": "pKd", "setting": "[1]; Jarvis et al., 2002", "value": 9.05}
    ]},
    {"smiles": "Nc1ncnc2c1ncn2[C@@H]1O[C@H](COP(=O)(O)OP(=O)(O)OP(=O)(O)O)[C@@H](O)[C@H]1O", "note": "[ATP, Adenosine 5′-triphosphate]", "values": [
      {"measurement": "Mean no. of spikes per 2 s (±s.e.m.)", "setting": "[2]; 100 pM ATP alone", "value": "3 ± 1.67", "unit": "spikes per 2 s"},
      {"measurement": "Mean no. of spikes per 2 s (±s.e.m.)", "setting": "[2]; 200 pM ATP alone", "value": "24.8 ± 4.84 spikes per 2 s and 28.12 ± 3.5 spikes per 2 s"},
      {"measurement": "affinity", "setting": "[1]", "value": "< 1", "unit": "nM"}
    ]},
    {"smiles": "Cc1nc(C)c(C)nc1C", "note": "[TMP, 2,3,5,6-tetramethylpyrazine]", "values": [
      {"measurement": "% Fed, Median", "setting": "Glossina pallidipes; FFS + 16 μg/cm^2 on membrane", "value": 40, "unit": "%"},
      {"measurement": "% Fed, Median", "setting": "Glossina pallidipes; FFS + 150 μM", "value": 66.7, "unit": "%"},
      {"measurement": "effect on feeding, compound applied onto the feeding membrane, in words", "setting": "Glossina pallidipes; dose as in Table 10", "value": "significantly inhibited feeding"},
      {"measurement": "effect on feeding, compound in solution containing ATP, in words", "setting": "Glossina pallidipes", "value": "failed to inhibit feeding"},
      {"measurement": "% Fed, Median", "setting": "Haematobia irritans; FFS + 50 μM", "value": 50, "unit": "%"},
      {"measurement": "% Fed, Median", "setting": "Haematobia irritans; FFS + 100 μM", "value": 37.5, "unit": "%"},
      {"measurement": "% Fed, Median", "setting": "Haematobia irritans; FFS + 500 μM", "value": 0, "unit": "%"},
      {"measurement": "effect on feeding on solutions containing ATP, in words", "setting": "Haematobia irritans", "value": "inhibited feeding"}
    ]},
    {"smiles": "Cc1ccc(C(=O)Nc2ccc(S(=O)(=O)O)c3cc(S(=O)(=O)O)cc(S(=O)(=O)O)c23)cc1NC(=O)c1cccc(NC(=O)Nc2cccc(C(=O)Nc3cc(C(=O)Nc4ccc(S(=O)(=O)O)c5cc(S(=O)(=O)O)cc(S(=O)(=O)O)c45)ccc3C)c2)c1", "note": "[Suramin]", "values": [
      {"measurement": "% Fed, Median", "setting": "Glossina pallidipes; FFS + 50 μM", "value": 45.5, "unit": "%"},
      {"measurement": "Fluid intake, Median (mg)", "setting": "Ixodes ricinus; TFS + 500 μM", "value": 1.9, "unit": "mg/h"},
      {"measurement": "% Fed, Median", "setting": "Haematobia irritans; FFS + 50 μM", "value": 61.5, "unit": "%"},
      {"measurement": "% Fed, Median", "setting": "Haematobia irritans; FFS + 100 μM", "value": 46.2, "unit": "%"},
      {"measurement": "Fluid intake, Median (mg)", "setting": "Amblyomma hebraeum; TFS + 500 μM", "value": 4.5, "unit": "mg/h"}
    ]}
  ]
}
